Test results as given in patent US20050107386A1, “Methods of treating diseases and disorders by targeting multiple kinases” (priority 2003, published 2005).

Assays:
FGFR3(h) = FGFR3(h) (Homo sapiens, UniProt P22607); assay: FGFR3(h) kinase assay; format: biochemical; details: 3 μM; percent of control kinase activity
Description: (§1) Six compounds (presumptive single agents) were tested against a panel of 50 kinases. The results are presented in Table 2; numbers for each kinase indicate the percent of control kinase activity in the presence of a 3μM concentration of the indicated agent.
(§2) Agents that target two or more different kinases are useful in the methods of the invention as described elsewhere herein. Such compounds may be identified, and their effect on certain kinases may be identified, using the assays briefly described below in Examples 4-83. Each of these assays was carried out as described in Davies et al., Biochem. J., 351:95-105 (2000). All assays were carried out at 10 μM ATP unless otherwise noted.
(§3) In a final reaction volume of 25 μl, FGFR3 (h) (5-10 mU) is incubated with 50 mM Tris pH 7.5, 0.1 mM EGTA, 0.1 mM NaVanadate, 0.1% β-mercaptoethanol, 0.1 mg/ml poly(Glu, Tyr) 4:1, 10 mM MnCl2, 10 mM MgAcetate and [γ-^33P-ATP] (specific activity approx. 500 cpm/pmol, concentration as required). The reaction is initiated by the addition of Mg^2+ [γ-^33P-ATP]. After incubation for 40 minutes at room temperature, the reaction is stopped by the addition of 5 μl of a 3% phosphoric acid solution. 10 μl of the reaction is then spotted onto a Filtermat A and washed three times for 5 minutes in 75 mM phosphoric acid and once in methanol prior to drying and scintillation counting.

CaMKII(r) = CaMKII(r) kinase assay; format: biochemical, rat; details: 3 μM; percent of control kinase activity
Description: as §1, §2
as §3, with “μl, CaMKII (r)” for “μl, FGFR3 (h)”, “with 40” for “with 50”, “mM Hepes” for “mM Tris”, “pH 7.4, 5” for “pH 7.5, 0.1”, “mM CaCl2, 30 μg/ml calmodulin, 30 μM […] (SEQ ID NO:11),” for “mM EGTA, 0.1 mM NaVanadate, 0.1% β-mercaptoethanol, 0.1 mg/ml poly(Glu, Tyr) 4:1, 10 mM MnCl2,”, “a P30 filtermat” for “a Filtermat A”

CDK3/cyclinE(h) = CDK3/cyclinE(h) (Homo sapiens, UniProt Q00526); assay: CDK3/cyclinE(h) kinase assay; format: biochemical; details: 3 μM; percent of control kinase activity
Chain of CDK3/cyclinE(h) (Q00526 whole entry): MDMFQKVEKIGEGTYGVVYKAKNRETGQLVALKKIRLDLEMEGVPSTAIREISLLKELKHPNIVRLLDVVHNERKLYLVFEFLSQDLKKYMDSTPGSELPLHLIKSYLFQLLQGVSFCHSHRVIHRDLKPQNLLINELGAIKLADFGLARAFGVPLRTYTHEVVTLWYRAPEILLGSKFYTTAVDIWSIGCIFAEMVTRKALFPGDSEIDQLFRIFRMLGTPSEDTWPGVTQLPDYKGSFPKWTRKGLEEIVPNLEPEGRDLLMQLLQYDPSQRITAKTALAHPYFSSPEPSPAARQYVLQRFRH
Chain of CDK3/cyclinE(h) (P24864 whole entry partner): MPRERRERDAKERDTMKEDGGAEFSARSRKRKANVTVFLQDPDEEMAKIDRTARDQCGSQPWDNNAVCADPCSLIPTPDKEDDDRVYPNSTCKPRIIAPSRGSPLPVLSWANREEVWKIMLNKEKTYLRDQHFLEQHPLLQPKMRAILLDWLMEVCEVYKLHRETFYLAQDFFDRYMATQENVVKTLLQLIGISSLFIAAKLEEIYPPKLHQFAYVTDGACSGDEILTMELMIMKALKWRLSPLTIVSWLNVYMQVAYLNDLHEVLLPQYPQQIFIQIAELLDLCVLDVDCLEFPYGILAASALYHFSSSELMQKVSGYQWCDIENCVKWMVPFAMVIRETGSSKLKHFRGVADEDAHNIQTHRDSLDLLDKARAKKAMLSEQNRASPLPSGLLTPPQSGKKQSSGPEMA
Description: as §1, §2
(§4) In a final reaction volume of 25 μl, CDK3/cyclinE (h) (5-10 mU) is incubated with 8 mM MOPS pH 7.0, 0.2 mM EDTA, 0.1 mg/ml histone H1, 10 mM MgAcetate and [γ-^33P-ATP] (specific activity approx. 500 cpm/pmol, concentration as required). The reaction is initiated by the addition of Mg^2+ [γ-^33P-ATP]. After incubation for 40 minutes at room temperature, the reaction is stopped by the addition of 5 μl of a 3% phosphoric acid solution. 10 μl of the reaction is then spotted onto a P30 filtermat and washed three times for 5 minutes in 75 mM phosphoric acid and once in methanol prior to drying and scintillation counting.

Rsk1(h) = Rsk1(h) (Homo sapiens, UniProt Q15418); assay: Rsk1(h) kinase assay; format: biochemical; details: for Inhibitory activity (% of control), Rsk1(h): 3 μM, percent of control kinase activity
Chain of Rsk1(h) (Q15418 whole entry): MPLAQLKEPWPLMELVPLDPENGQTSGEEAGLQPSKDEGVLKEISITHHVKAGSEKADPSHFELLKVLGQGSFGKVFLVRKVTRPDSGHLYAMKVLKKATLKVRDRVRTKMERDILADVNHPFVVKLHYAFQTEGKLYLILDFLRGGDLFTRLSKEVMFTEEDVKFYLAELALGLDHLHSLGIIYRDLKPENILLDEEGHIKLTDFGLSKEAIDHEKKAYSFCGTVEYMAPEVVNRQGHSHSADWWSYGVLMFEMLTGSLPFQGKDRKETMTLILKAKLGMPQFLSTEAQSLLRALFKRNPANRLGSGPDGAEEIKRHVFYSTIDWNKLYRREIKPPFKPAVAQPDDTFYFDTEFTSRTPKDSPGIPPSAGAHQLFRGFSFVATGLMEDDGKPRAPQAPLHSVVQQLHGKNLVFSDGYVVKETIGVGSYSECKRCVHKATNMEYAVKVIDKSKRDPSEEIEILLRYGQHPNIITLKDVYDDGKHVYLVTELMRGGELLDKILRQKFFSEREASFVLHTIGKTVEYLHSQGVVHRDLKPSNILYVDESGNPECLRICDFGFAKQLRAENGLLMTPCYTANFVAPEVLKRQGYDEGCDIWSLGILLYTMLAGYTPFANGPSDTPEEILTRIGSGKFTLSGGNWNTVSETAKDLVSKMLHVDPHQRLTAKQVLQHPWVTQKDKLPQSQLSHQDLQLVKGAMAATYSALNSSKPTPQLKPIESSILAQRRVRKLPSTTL

AMPK(r) = AMPK(r) kinase assay; format: biochemical, rat; details: 3 μM; percent of control kinase activity
Description: as §1, §2
as §4, with “AMPK(r)” for “CDK3/cyclinE (h)”, “50” for “8”, “Hepes” for “MOPS”, “7.4, 1” for “7.0, 0.2”, “DTT, 0.02% Brij-35, 200 μM AMP, 200 μM […] (SEQ ID NO:4),” for “EDTA, 0.1 mg/ml histone H1,”, “(Specific” for “(specific”

p70S6K(h) = p70S6K(h) (Homo sapiens, UniProt P23443); assay: p70S6K(h) kinase assay; format: biochemical; details: 3 μM; percent of control kinase activity
Chain of p70S6K(h) (P23443 whole entry): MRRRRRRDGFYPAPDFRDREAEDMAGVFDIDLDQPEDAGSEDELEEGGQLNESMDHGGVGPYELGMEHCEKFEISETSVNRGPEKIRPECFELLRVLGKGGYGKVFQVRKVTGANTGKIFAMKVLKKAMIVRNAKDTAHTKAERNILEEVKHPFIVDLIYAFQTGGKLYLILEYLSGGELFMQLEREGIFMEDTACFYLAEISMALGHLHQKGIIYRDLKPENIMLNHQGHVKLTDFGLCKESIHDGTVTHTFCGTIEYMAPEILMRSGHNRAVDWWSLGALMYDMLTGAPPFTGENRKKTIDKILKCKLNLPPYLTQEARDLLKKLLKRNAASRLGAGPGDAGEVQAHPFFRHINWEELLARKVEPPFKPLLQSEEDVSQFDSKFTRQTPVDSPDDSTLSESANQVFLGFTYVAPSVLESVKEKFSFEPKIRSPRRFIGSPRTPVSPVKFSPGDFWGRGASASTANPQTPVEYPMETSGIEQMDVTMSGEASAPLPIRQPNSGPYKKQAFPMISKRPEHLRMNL
Description: as §1, §2
as §4, with “p70S6K” for “CDK3/cyclinE”, “100 μM […] (SEQ ID NO:9),” for “0.1 mg/ml histone H1,”

Chain of FGFR3(h) (P22607 23-806): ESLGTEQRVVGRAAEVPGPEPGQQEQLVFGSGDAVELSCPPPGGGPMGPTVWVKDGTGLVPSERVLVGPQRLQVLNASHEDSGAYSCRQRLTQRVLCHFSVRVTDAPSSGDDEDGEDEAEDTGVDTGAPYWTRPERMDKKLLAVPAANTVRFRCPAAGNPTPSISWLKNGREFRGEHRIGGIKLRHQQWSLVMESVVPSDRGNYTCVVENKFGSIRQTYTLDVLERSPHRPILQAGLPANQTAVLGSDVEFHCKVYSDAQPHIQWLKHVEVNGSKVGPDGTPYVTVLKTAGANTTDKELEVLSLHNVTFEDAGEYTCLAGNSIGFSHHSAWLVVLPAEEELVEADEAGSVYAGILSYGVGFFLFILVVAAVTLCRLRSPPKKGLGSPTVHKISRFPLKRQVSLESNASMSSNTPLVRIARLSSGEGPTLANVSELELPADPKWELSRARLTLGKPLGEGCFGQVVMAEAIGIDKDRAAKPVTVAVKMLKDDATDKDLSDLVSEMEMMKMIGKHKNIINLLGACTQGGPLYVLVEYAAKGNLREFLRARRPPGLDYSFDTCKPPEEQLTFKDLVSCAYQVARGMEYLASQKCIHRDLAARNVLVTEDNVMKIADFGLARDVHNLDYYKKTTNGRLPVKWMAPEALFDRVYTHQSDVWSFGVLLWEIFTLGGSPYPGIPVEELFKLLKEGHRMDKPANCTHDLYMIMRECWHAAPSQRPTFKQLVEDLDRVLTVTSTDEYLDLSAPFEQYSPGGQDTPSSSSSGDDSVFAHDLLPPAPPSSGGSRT

SMILES	Inhibitory activity (% of control), FGFR3(h) (FGFR3(h))	Inhibitory activity (% of control), CaMKII(r) (CaMKII(r))	Inhibitory activity (% of control), CDK3/cyclinE(h) (CDK3/cyclinE(h))	Inhibitory activity (% of control), Rsk1(h) (Rsk1(h))	Inhibitory activity (% of control), AMPK(r) (AMPK(r))	Inhibitory activity (% of control), p70S6K(h) (p70S6K(h))	inhibitory activity against Rsk1, in words (Rsk1(h); summary of Table 2)
COc1ccc2cc(-c3n[nH]c4ccc(-c5n[nH]c(CN6CCOCC6)n5)cc34)ccc2c1 [CC001, 3-(6-Methoxynaphthalen-2-yl)-5-(5-Morpholin-4-Ylmethyl-1H-[1,2,4]Triazol-3-yl)-1H-Indazole]	33 % of control	64 % of control	31 % of control	4 % of control	52 % of control	17 % of control	–
CC(C)Cc1nc(-c2ccc3[nH]nc(-c4ccc5cc(OCCN6CCCC6)ccc5c4)c3c2)n[nH]1 [CC002, 5-(5-Isobutyl-1H-[1,2,4]Triazol-3-yl)-3-[6-(2-Pyrrolidin-1-yl-Ethoxy)-Naphthalen-2-yl]-1H-Indazole]	5 % of control	26 % of control	36 % of control	3 % of control	4 % of control	16 % of control	–
CC(C)(C)Cc1nc(-c2ccc3[nH]nc(-c4ccc5cc(OCc6ccccn6)ccc5c4)c3c2)n[nH]1 [CC004, 5-[5-(2,2-Dimethyl-propyl)-1H-[1,2,4]triazol-3-yl]-3-[6-(pyridine-2-ylmethoxy)-naphthalen-2-yl]-1H-indazole]	77 % of control	52 % of control	39 % of control	29 % of control	54 % of control	40 % of control	good inhibitory activity
CCN1CCC[C@H]1COc1ccc2cc(-c3n[nH]c4ccc(-c5nc(CC(C)(C)C)n[nH]5)cc34)ccc2c1 [CC005, 2-[((2s)-1-ethylpyrrolidin-2-yl)methoxy]-6-{5-[3-(2,2-Dimethylpropyl)(1H-1,2,4,-triazol-5-yl)](1H-indazol-3-yl)}naphthalene]	5 % of control	4 % of control	25 % of control	2 % of control	2 % of control	3 % of control	–
Fc1ccc(-c2n[nH]c3ccc(-c4n[nH]c(C5CCCC5)n4)cc23)cc1 [CC006, 5-(5-Cyclopentyl-1H-[1,2,4]triazol-3-yl)-3-(4-fluoro-phenyl)-1H-indazole, reference compound]	33 % of control	82 % of control	15 % of control	43 % of control	74 % of control	41 % of control	–
O=C(NC1CCCC1)c1cccc(-c2n[nH]c3ccc(-c4nc[nH]n4)cc23)c1 [CC007, 3-(5-(1H-1,2,4-triazol-3-yl)(1H-indazol-3-yl))phenyl-N-cyclopentylcarboxamide, reference compound]	54 % of control	68 % of control	73 % of control	51 % of control	74 % of control	83 % of control	–
